Experimental data taken from PubChem BioAssay AID1963441 (Molecular Pharmacology Branch, DTP, NCI, 2024).
“And” between values parts separate entries of the source, which are not always exact repeats. Identical values can stand only once.

System: NCI-H1876 complex spheroid growth, % test/control
Assay: Anticancer human tumor NCI-H1876 cell line growth inhibition [Asc];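 also: compound exposure lasted 7 days starting three days after seeding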;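 as to viability, T/C: 100% = DMSO vehicle control wells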
Conditions: for viability, T/C: stronger effect = lower value; active = viability on the fitted dose curve at most 10% of control; inactive = the rest
Procedure: Multicellular complex tumor spheroid response to apoptosis pathway targeting inhibitors Alrizomadlin, Pelcitoclax, and Dasminapant in combination with a variety of drugs and investigational agents in selected tumor cell lines
The MDM2 inhibitor alrizomadlin, the Bcl-2/Bcl-xL inhibitor pelcitoclax, and the IAPs inhibitor dasminapant were evaluated both individually and in combination with standard of care and investigational anticancer small molecules within a complex spheroid model of solid tumors. . Complex spheroids include a stromal component modeled by human endothelial cells (HUVEC) and fibroblasts modeled by human mesenchymal stem cells (MSCs). The concentration ranges selected for each drug and investigational agent were based upon clinically achievable concentrations if the clinical Cmax of the agent was known.
Compounds. The drugs and investigational agents: alrizomadlin (APG-115; NSC831270), pelcitoclax (APG-1252; NSC835773), dasminapant (APG-1387;NSC834197), TAK-243 (NSC785004), copanlisib (NSC809693), olaparib (NSC753686), talazoparib (NSC767125), cobimetinib (NSC 768068), eltanexor (KPT-8602, NSC 794443), abemaciclib (NSC 768073), sotorasib (NSC818433), adagrasib (NSC 831453), MRTX-1133 (NSC 836407), Iadademestat (ORY1001, NSC 806812), and RMC-4630 (NSC839698), were obtained from the NCI Developmental Therapeutics Program Chemical Repository. The FDA-approved anticancer drug set is available from the Developmental Therapeutics Program at https://dtp.cancer.gov/organization/dscb/obtaining/available plates.htm. […] The stock solutions were prepared in dimethyl sulfoxide (DMSO, Sigma-Aldrich, St. Louis, MO, cat. D2650) at 800-fold the tested concentration and stored at -70 degrees C prior to their use. All drugs and investigational agents were tested over a range starting from a high concentration at or near the clinical Cmax and decreasing in half-log increments. If the clinical Cmax for an agent had not been determined, the highest concentration tested was 10 microM.
The patient-derived cancer (PDC) cell lines include five colon adenocarcinomas: 186277-243-T-J2-PDC, 616215-338-R-J1-PDC, 439559-082-T-J2-PDC, 463943-066-T-J2-PDC, and 519858-162-T-J1-PDC; three pancreatic carcinomas: 323965-272-R-J2-PDC, 521955-158-R6-J3-PDC, and 521955-158-R2-J5-PDC; two uterine sarcomas: 327498-152-R-J2-PDC and 993429-296-R-J1-PDC; two rhabdomyosarcomas: 755483-174-R-J1-PDC and 772245-204-R-J1-PDC; two soft tissue sarcomas: 126254-015-R-J1-PDC and 494315-158-R-J1-PDC; two malignant fibrous histiocytomas: 317291-083-R-J1-PDC and 596521-263-R-J1-PDC; two breast carcinomas: 171881-019-R-J1-PDC and 885512-296-R-J2-PDC; and one ovarian carcinoma: 6556581-035-R-J-PDC were obtained from the NCI PDMR, (https://pdmr.cancer.gov). The established cell lines HSSY-2 synovial sarcoma (RRID:CVCL 8719), SYO-1 synovial sarcoma (RRID:CVCL_7146), MPNST malignant peripheral neural sheath tumor were obtained from the Sloan Kettering Institute. The following established cell lines were purchased from the American Type Culture Collection (ATCC, Manassas, VA), Sor the received from the NCI repository:, PANC-1 pancreatic carcinoma (CRL-1469, RRID:CVCL_0480), OVCAR-5 ovarian carcinoma (RRID:CVCL_1628), OVCAR-8 ovarian carcinoma (RRID:CVCL_1629), , MCF-7 breast carcinoma (CRL-12584, RRID:CVCL_0031), MDA-MB-231 breast carcinoma (CRL-12532, RRID:CVCL_0062), NCI-H1876 small cell lung carcinoma (CRL-5902, RRID:CVCL_1503), NCI-H510A small cell lung carcinoma (HTB-184, RRID:CVCL_1565), NCI-H1417 (CRL-5869, RRID:CVCL_1469), and NCI-H196 small cell lung carcinoma (CRL-5823, RRID:CVCL_1509). Dr. Peter Houghton (Greehey Children's Cancer Research Institute, University of Texas Health Science Center, San Antonio, TX) provided Rh-18 rhabdomyosarcoma (RRID:CVCL_1659). Pooled donor human umbilical vein endothelial cells (HUVEC, Lonza, cat. CC-2519) and human mesenchymal stem cells (hMSC, Lonza, cat. PT-2501) were purchased from Lonza (Walkersville, MD).
Cell Culture. […]

C#Cc1c(F)ccc2cc(O)cc(-c3ncc4c(N5CC6CCC(C5)N6)nc(OCC56CCCN5CC(F)C6)nc4c3F)c12 (centres undefined) + CNC(C)C(=O)NC1CN(S(=O)(=O)c2cccc(S(=O)(=O)N3CCC4CCC(C(=O)NC(c5ccccc5)c5ccccc5)N4C(=O)C(NC(=O)C(C)NC)C3)c2)CCC2CCC(C(=O)NC(c3ccccc3)c3ccccc3)N2C1=O
inactive: viability, T/C (second compound 0.00316 µM, first compound 0.0316 µM) 101% | viability, T/C (second compound 0.00316 µM, first compound 0.1 µM) 88.2% | viability, T/C (second compound 0.00316 µM, first compound 0.316 µM) 103% | viability, T/C (second compound 0.00316 µM, first compound 1 µM) 90.3% | viability, T/C (second compound 0.00316 µM, first compound 3.16 µM) 93.5% | viability, T/C (second compound 0.00316 µM, first compound 10 µM) 86.7% | viability, T/C (second compound 0.01 µM, first compound 0.0316 µM) 96.9% | viability, T/C (second compound 0.01 µM, first compound 0.1 µM) 92.3% | viability, T/C (second compound 0.01 µM, first compound 0.316 µM) 101% | viability, T/C (second compound 0.01 µM, first compound 1 µM) 92.9% | viability, T/C (second compound 0.01 µM, first compound 3.16 µM) 91.8% | viability, T/C (second compound 0.01 µM, first compound 10 µM) 89.3% | viability, T/C (second compound 0.0316 µM, first compound 0.0316 µM) 105% | viability, T/C (second compound 0.0316 µM, first compound 0.1 µM) 88.6% | viability, T/C (second compound 0.0316 µM, first compound 0.316 µM) 101% | viability, T/C (second compound 0.0316 µM, first compound 1 µM) 93.9% | viability, T/C (second compound 0.0316 µM, first compound 3.16 µM) 102% | viability, T/C (second compound 0.0316 µM, first compound 10 µM) 95.7% | viability, T/C (second compound 0.1 µM, first compound 0.0316 µM) 106% | viability, T/C (second compound 0.1 µM, first compound 0.1 µM) 99.4% | viability, T/C (second compound 0.1 µM, first compound 0.316 µM) 104% | viability, T/C (second compound 0.1 µM, first compound 1 µM) 94.6% | viability, T/C (second compound 0.1 µM, first compound 3.16 µM) 94.5% | viability, T/C (second compound 0.1 µM, first compound 10 µM) 82.8% | viability, T/C (second compound 0.316 µM, first compound 0.0316 µM) 109% | viability, T/C (second compound 0.316 µM, first compound 0.1 µM) 101% | viability, T/C (second compound 0.316 µM, first compound 0.316 µM) 89.8% | viability, T/C (second compound 0.316 µM, first compound 1 µM) 108% | viability, T/C (second compound 0.316 µM, first compound 3.16 µM) 107% | viability, T/C (second compound 0.316 µM, first compound 10 µM) 96% | viability, T/C (second compound 1 µM, first compound 0.0316 µM) 90.3% | viability, T/C (second compound 1 µM, first compound 0.1 µM) 89.8% | viability, T/C (second compound 1 µM, first compound 0.316 µM) 98% | viability, T/C (second compound 1 µM, first compound 1 µM) 106% | viability, T/C (second compound 1 µM, first compound 3.16 µM) 103% | viability, T/C (second compound 1 µM, first compound 10 µM) 92.2%
> 10 µM: IC50 (curve of first compound, second compound 0.00316 µM) | IC50 (curve of first compound, second compound 0.01 µM) | IC50 (curve of first compound, second compound 0.0316 µM) | IC50 (curve of first compound, second compound 0.1 µM) | IC50 (curve of first compound, second compound 0.316 µM) | IC50 (curve of first compound, second compound 1 µM)

COc1c(OCCCN2CCOCC2)ccc2c3n(c(=NC(=O)c4cnc(N)nc4)nc12)CCN3
0.724 µM and 0.679 µM and 0.992 µM: IC50 (curve of compound)
inactive: viability, T/C (compound 0.00316 µM) 106% and 91.5% and 100% | viability, T/C (compound 0.01 µM) 89.7% and 97.9% and 107% | viability, T/C (compound 0.0316 µM) 85% and 84.5% and 99.3% | viability, T/C (compound 0.1 µM) 79.1% and 75.3% and 72% | viability, T/C (compound 0.316 µM) 64.5% and 59.5% and 60.7% | viability, T/C (compound 1 µM) 48.8% and 45.6% and 44.9%
